Results published in article PMC3827032, “Functional Analysis of Hsp70 Inhibitors” (PLoS ONE, 2013).
Blank lines part the entries; values can stand above or below the molecule they belong to.

How the values were obtained:
[1] = molecular target: T1, Hsp70 (Homo sapiens, UniProt P0DMV8); assay: ITC ([…]), SPR ([…]), DSC (Tm +[…]°C); type: binding; parameters: gene HSPA1A; full-length, nucleotide-free
[2] = molecular target: T1, Hsp70; parameters: gene HSPA1A
[3] = molecular target: T1, Hsp70; assay: crystal structure of NBD ([…] Å), ITC ([…]), SPR ([…]), DSC, ATPase inhibition (Ki […]; […] with Hdj1); type: binding; parameters: gene HSPA1A; full-length (ITC, SPR); NBD residues 1–382 (crystal structure)

T1 sequence (P0DMV8 2-641): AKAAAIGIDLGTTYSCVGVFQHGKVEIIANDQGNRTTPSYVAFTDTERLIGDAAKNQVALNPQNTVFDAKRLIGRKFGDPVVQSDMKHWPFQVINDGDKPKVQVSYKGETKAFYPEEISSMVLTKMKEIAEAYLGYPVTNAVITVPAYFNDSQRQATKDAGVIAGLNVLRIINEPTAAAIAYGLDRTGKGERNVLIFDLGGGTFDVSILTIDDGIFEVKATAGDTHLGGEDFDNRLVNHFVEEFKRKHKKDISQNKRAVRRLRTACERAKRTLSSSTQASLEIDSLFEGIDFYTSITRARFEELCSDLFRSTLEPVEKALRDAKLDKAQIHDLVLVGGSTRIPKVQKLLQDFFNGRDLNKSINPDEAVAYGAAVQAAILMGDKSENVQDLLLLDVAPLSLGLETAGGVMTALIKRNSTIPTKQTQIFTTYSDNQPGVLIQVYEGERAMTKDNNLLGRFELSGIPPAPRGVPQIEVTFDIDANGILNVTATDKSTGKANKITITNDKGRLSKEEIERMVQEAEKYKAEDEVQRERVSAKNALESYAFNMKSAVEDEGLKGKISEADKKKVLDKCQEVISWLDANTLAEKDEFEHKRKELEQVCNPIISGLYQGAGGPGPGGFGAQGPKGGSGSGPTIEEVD

Kd [1]: 7.7 ± 0.4 nM
Structure (SMILES): Nc1ncnc2c1ncn2[C@@H]1O[C@H](COP(=O)(O)OP(=O)(O)O)[C@@H](O)[C@H]1O [ADP]

Structure (SMILES): Nc1ncnc2c1ncn2[C@@H]1O[C@H](COP(=O)(O)OP(=O)(O)OP(=O)(O)O)[C@@H](O)[C@H]1O [ATP]
Km [2]: 9.9 ± 1.3 µM

Kd [3]: 228 ± 16 nM
Structure (SMILES): N#Cc1ccc(COC[C@H]2O[C@@H](n3c(NCc4ccc(Cl)c(Cl)c4)nc4c(N)ncnc43)[C@H](O)[C@@H]2O)cc1 [VER-155008]
